Data on 20 compounds can be found in patent US8722683B2, “Benzodioxole piperazine compounds” (Hoffmann LA-Roche Inc., priority 2011, dated 2014).

The target in one series is 5-HT2A receptor (Homo sapiens (Human), UniProt P28223). As to the kind of experiment: Radioligand binding ([3H]-ketanserin) to cloned 5-HT2A receptor expressed in HEK-293 EBNA cells. As to the method: HEK293 EBNA cells were transiently transfected with expression plasmids encoding for the human D2 or D3 or for the human 5-HT2A receptor, respectively. The cells were harvested 48 h post-transfection, washed three times with cold PBS and stored at −80° C. prior to use. The pellet was suspended in cold 50 mM Tris-HCl buffer containing 10 mM EDTA (pH 7.4) and was homogenized with a Polytron (Kinematica AG, Basel, Switzerland) for 20-30 sec at 12.000 rpm. After centrifugation at 48.000×g for 30 min at 4° C., the pellet was resuspended in cold 10 mM Tris-HCl buffer containing 0.1 mM EDTA (pH 7.4), homogenized, and centrifuged as above. This pellet was further resuspended in a smaller volume of ice cold 10 mM Tris-HCl buffer containing 0.1 mM EDTA (pH 7.4) and homogenized with a Polytron for 20-30 sec at 12.000 rpm. The protein content of this homogenate was determined with the Bio-Rad (Bradford) Protein Assay (Biorad Laboratories GmbH, München, Germany) according to the instructions of the manufacturer using gamma globulin as the standard. This homogenate was stored at −80° C. in aliquots and thawed immediately prior to use.
Radioligand Binding Assay
Aliquots of membrane preparations were thawed at RT, resupended in assay buffer (D2, D3: 50 mM Tris-HCl, 120 mM NaCl, 5 mM MgCl2, 1 mM EDTA, 5 mM KCl, 1.5 mM CaCl2, pH=7.4; 5-HT2A: 50 mM Tris-HCl, 10 mM MgCl2, 1 mM EGTA, pH=7.4), homogenized with a Polytron for 20-30 sec at 12.000 rpm and adjusted to a final concentration of approximately 7.5 μg protein/well (D2, D3) and 15 μg protein/well (5-HT2A), respectively.
The binding affinity (Ki) of the compounds was determined using radioligand binding. […] The nonspecific binding was determined with equally composed reaction mixtures in the presence of 10 μM unlabelled spiperone. Per well 45 μl of Microscint 40 (Perkin Elmer, Schwerzenbach, Switzerland) was added, plates for sealed, shaken for 20 min and counted for 3 min on a Topcount Microplate Scintillation Counter (Canberra Packard SA, Zürich, Switzerland) with quenching correction.
The CPM value for each duplicate of a concentration of competing compound was averaged (y1), then the % specific binding was calculated according to the equation (((y1−non-specific)/(total binding−non-specific))×100). Graphs were plotted with the % specific binding using XLfit, a curve fitting program that iteratively plots the data using Levenberg-Marquardt algorithm. The single site competition analysis equation used was y=A+((B−A)/(1+((x/C)D))), where y is the % specific binding, A is the minimum y, B is the maximum y, C is the IC50, x is the log 10 of the concentration of the competing compound and D is the slope of the curve (the Hill Coefficient). […] The affinity constant (Ki) was calculated using the Cheng-Prusoff equation Ki=(IC50/1+([L]/Kd), where [L] is the concentration of radioligand and Kd is the dissociation constant of the radioligand at the receptor as determined by the saturation isotherm.

The next series concerns the target D2 receptor (Homo sapiens (Human), UniProt P14416). As to the kind of experiment: Radioligand binding ([3H]-spiperone) to cloned D2 receptor expressed in HEK-293 EBNA cells. Conditions: HEK293 EBNA membranes, 0.7 nM [3H]-spiperone.
A further series addresses D3 receptor (Homo sapiens (Human), UniProt P35462). The series can be described thus: Radioligand binding ([3H]-spiperone) to cloned D3 receptor expressed in HEK-293 EBNA cells. Conditions: HEK293 EBNA membranes, 0.5 nM [3H]-spiperone.
Setting [1] is: human 5-HT2A receptor, HEK293 EBNA membranes, 1.1 nM [3H]-ketanserin.

One may read the Ki as a dissociation constant, usually derived from enzyme kinetics or from competition with a known ligand. High values mean a looser hold on the target, low ones a stronger hold on the target. A word on the melting point: it is the temperature of the solid-liquid transition.

Like-named read-outs stand apart in the source and are kept apart here.

5-HT2A receptor, sequence (P28223 whole entry): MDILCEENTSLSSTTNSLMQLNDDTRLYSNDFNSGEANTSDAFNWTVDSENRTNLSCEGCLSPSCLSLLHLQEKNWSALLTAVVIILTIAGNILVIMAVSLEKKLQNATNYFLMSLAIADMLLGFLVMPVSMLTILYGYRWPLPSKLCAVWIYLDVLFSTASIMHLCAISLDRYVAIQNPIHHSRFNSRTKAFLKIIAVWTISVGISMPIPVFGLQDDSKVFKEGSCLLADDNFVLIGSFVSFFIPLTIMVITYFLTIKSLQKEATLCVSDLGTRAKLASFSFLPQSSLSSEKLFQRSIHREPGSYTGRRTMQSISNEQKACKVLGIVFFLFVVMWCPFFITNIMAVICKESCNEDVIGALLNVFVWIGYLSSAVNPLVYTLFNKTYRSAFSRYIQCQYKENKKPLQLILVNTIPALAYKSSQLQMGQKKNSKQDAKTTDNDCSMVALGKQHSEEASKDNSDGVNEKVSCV
D2 receptor, sequence (P14416 whole entry): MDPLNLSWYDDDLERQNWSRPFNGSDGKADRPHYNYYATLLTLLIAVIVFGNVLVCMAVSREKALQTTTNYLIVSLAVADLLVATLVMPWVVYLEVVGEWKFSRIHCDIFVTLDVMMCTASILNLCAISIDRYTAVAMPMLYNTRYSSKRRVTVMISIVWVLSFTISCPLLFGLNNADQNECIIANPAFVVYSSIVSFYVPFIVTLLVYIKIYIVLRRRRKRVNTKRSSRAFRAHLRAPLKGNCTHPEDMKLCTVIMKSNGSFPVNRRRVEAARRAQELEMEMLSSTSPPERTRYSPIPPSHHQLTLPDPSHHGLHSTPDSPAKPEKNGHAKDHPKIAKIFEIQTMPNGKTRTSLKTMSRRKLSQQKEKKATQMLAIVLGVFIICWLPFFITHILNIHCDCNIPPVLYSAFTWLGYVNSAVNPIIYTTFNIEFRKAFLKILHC
D3 receptor, sequence (P35462 whole entry): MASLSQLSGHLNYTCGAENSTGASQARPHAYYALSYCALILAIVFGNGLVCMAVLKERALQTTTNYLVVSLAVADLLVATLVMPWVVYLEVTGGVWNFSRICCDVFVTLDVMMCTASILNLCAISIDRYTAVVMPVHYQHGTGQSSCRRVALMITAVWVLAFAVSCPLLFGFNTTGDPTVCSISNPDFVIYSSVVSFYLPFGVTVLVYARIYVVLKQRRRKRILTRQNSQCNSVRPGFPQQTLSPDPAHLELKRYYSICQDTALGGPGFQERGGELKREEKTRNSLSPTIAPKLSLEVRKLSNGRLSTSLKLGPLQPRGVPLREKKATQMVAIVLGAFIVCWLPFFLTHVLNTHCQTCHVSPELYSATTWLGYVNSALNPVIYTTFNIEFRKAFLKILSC

On to `O=C(C[C@H]1COCCO1)N[C@H]1CC[C@H](CCN2CCN(c3cccc4c3OCO4)CC2)CC1` (single isomer, unassigned) [Example 4, Trans-N-{4-[2-(4-Benzo[1,3]dioxol-4-yl-piperazin-1-yl)-ethyl]-cyclohexyl}-2-(S) or (R)[1,4]dioxan-2-yl-acetamide], for which the inhibitory constant (Ki) on 5-HT2A receptor (setting [1]) worked out at 7.78 nM. That is a single-digit nanomolar value.

On 5-HT2A receptor (setting [1]), `O=C(C[C@@H]1COCCO1)N[C@H]1CC[C@H](CCN2CCN(c3cccc4c3OCO4)CC2)CC1` (single isomer, unassigned) [Example 5, Trans-N-{4-[2-(4-Benzo[1,3]dioxol-4-yl-piperazin-1-yl)-ethyl]-cyclohexyl}-2-(R) or (S)-[1,4]dioxan-2-yl-acetamide] had an inhibition constant (Ki) of 12.3 nM.

Regarding `O=C(C[C@@H]1CCCOC1)N[C@H]1CC[C@H](CCN2CCN(c3cccc4c3OCO4)CC2)CC1` (single isomer, unassigned) [Example 32, Trans-N-{4-[2-(4-Benzo[1,3]dioxol-4-yl-piperazin-1-yl)-ethyl]-cyclohexyl}-2-(S) or (R)-tetrahydro-pyran-3-yl-acetamide], the Ki was determined as 26.2 nM at 5-HT2A receptor (setting [1]) and 137 nM on D2 receptor.

As for `O=C(C[C@H]1CCCOC1)N[C@H]1CC[C@H](CCN2CCN(c3cccc4c3OCO4)CC2)CC1` (single isomer, unassigned) [Example 33, Trans-N-{4-[2-(4-Benzo[1,3]dioxol-4-yl-piperazin-1-yl)-ethyl]-cyclohexyl}-2-(R) or (S)-tetrahydro-pyran-3-yl-acetamide], the inhibition constant Ki on 5-HT2A receptor (setting [1]) was found to be 24.4 nM; at D2 receptor, 184 nM.

For `O=C(CC1COCCO1)N[C@H]1CC[C@H](CCN2CCN(c3cccc4c3OCO4)CC2)CC1` (stereo partly drawn) [Example 3, Trans-N-{4-[2-(4-Benzo[1,3]dioxol-4-yl-piperazin-1-yl)-ethyl]-cyclohexyl}-2-[1,4]dioxan-2-yl-acetamide], the inhibitory constant (Ki) at 5-HT2A receptor is 11.8 nM; on D2 receptor, 198 nM.

`O=C(N[C@H]1CC[C@H](CCN2CCN(c3cccc4c3OCO4)CC2)CC1)C1CC1(F)F` (stereo partly drawn) [Example 20, Trans-2,2-Difluoro-cyclopropanecarboxylic acid {4-[2-(4-benzo[1,3]dioxol-4-yl-piperazin-1-yl)-ethyl]-cyclohexyl}-amide]: the inhibition constant Ki is 2.55 nM at D3 receptor, 26.8 nM on 5-HT2A receptor and 144 nM on D2 receptor.

Consider `COC(C)CC(=O)N[C@H]1CC[C@H](CCN2CCN(c3cccc4c3OCO4)CC2)CC1` (stereo partly drawn) [Example 21, Trans-N-{4-[2-(4-Benzo[1,3]dioxol-4-yl-piperazin-1-yl)-ethyl]-cyclohexyl}-3-methoxy-butyramide], for which the Ki at D3 receptor was determined as 2.76 nM; on 5-HT2A receptor, 24.3 nM; at D2 receptor, 181 nM.

For the compound `O=C(CC1COC1)N[C@H]1CC[C@H](CCN2CCN(c3cccc4c3OCO4)CC2)CC1` [Example 22, Trans-N-{4-[2-(4-Benzo[1,3]dioxol-4-yl-piperazin-1-yl)-ethyl]-cyclohexyl}-2-oxetan-3-yl-acetamide], the melting point was 190 °C. Affinity at D3 receptor was put at a Ki of 2.06 nM. Besides, on D2 receptor, the affinity, expressed as Ki, was 106 nM.

Take `CCC(O)C(=O)N[C@H]1CC[C@H](CCN2CCN(c3cccc4c3OCO4)CC2)CC1` (stereo partly drawn) [Example 38, Trans-N-{4-[2-(4-Benzo[1,3]dioxol-4-yl-piperazin-1-yl)-ethyl]-cyclohexyl}-2-hydroxy-butyramide]: the Ki on D3 receptor was 12.5 nM; at 5-HT2A receptor, 25.8 nM; at D2 receptor, 122 nM.

In the case of `CC(C)[C@@H](O)C(=O)N[C@H]1CC[C@H](CCN2CCN(c3cccc4c3OCO4)CC2)CC1` [Example 39, (R)-Trans-N-{4-[2-(4-Benzo[1,3]dioxol-4-yl-piperazin-1-yl)-ethyl]-cyclohexyl}-2-hydroxy-3-methyl-butyramide], the values for the Ki on D3 receptor, on 5-HT2A receptor and at D2 receptor were 5.77 nM, 34.7 nM and 90.2 nM, respectively.

On to `CC(C)[C@H](O)C(=O)N[C@H]1CC[C@H](CCN2CCN(c3cccc4c3OCO4)CC2)CC1` [Example 40, (S)-Trans-N-{4-[2-(4-Benzo[1,3]dioxol-4-yl-piperazin-1-yl)-ethyl]-cyclohexyl}-2-hydroxy-3-methyl-butyramide], for which the Ki at D3 receptor is 14.8 nM; at 5-HT2A receptor it was 22.5 nM; on D2 receptor it was 73.4 nM.

In the case of `O=C(N[C@H]1CC[C@H](CCN2CCN(c3cccc4c3OCO4)CC2)CC1)C1CCOCC1` [Example 43, Tetrahydro-pyran-4-carboxylic acid-trans-N-{4-[2-(4-benzo[1,3]dioxol-4-yl-piperazin-1-yl)-ethyl]-cyclohexyl}-amide], the Ki was 4.48 nM on D3 receptor, 7.74 nM at 5-HT2A receptor and 219 nM on D2 receptor.

`O=C(N[C@H]1CC[C@H](CCN2CCN(c3cccc4c3OCO4)CC2)CC1)c1ccc2c(c1)OCCO2` [Example 49, 2,3-Dihydro-benzo[1,4]dioxine-6-carboxylic acid-trans-N-{4-[2-(4-benzo[1,3]dioxol-4-yl-piperazin-1-yl)-ethyl]-cyclohexyl}-amide]: the values for the Ki on D3 receptor, on 5-HT2A receptor and at D2 receptor were 4.59 nM, 10.7 nM and 4820 nM, respectively.

With `O=C(N[C@H]1CC[C@H](CCN2CCN(c3cccc4c3OCO4)CC2)CC1)C1CCS(=O)(=O)C1` (stereo partly drawn) [Example 52, 1,1-Dioxo-tetrahydro-1,6-thiophene-3-carboxylic acid-trans-N-{4-[2-(4-benzo[1,3]dioxol-4-yl-piperazin-1-yl)-ethyl]-cyclohexyl}-amide], the inhibitory constant (Ki) is 3.56 nM on D3 receptor, 4.3 nM at 5-HT2A receptor (setting [1]) and 59 nM at D2 receptor.

For `CN1CCC(C(=O)N[C@H]2CC[C@H](CCN3CCN(c4cccc5c4OCO5)CC3)CC2)CC1` [Example 57, 1-Methyl-piperidine-4-carboxylic acid-trans-N-{4-[2-(4-benzo[1,3]dioxol-4-yl-piperazin-1-yl)-ethyl]-cyclohexyl}-amide], the Ki on D3 receptor was found to be 24.9 nM; at 5-HT2A receptor it was 15.3 nM; at D2 receptor, 62.9 nM.

For the compound `CC1(C(=O)N[C@H]2CC[C@H](CCN3CCN(c4cccc5c4OCO5)CC3)CC2)COC1` [Example 58, 3-Methyl-oxetane-3-carboxylic acid-trans-N-{4-[2-(4-benzo[1,3]dioxol-4-yl-piperazin-1-yl)-ethyl]-cyclohexyl}-amide], the Ki at D3 receptor was 6.82 nM; at 5-HT2A receptor, 15.6 nM; at D2 receptor, 81.1 nM.

Consider `CN1CCN(CC(=O)N[C@H]2CC[C@H](CCN3CCN(c4cccc5c4OCO5)CC3)CC2)CC1` [Example 61, Trans-N-{4-[2-(4-Benzo[1,3]dioxol-4-yl-piperazin-1-yl)-ethyl]-cyclohexyl}-2-(4-methyl-piperazin-1-yl)-acetamide], for which the inhibition constant (Ki) on D3 receptor stood at 4.63 nM; at 5-HT2A receptor it was 16 nM; at D2 receptor, 38.1 nM.

For `COC1(C(=O)N[C@H]2CC[C@H](CCN3CCN(c4cccc5c4OCO5)CC3)CC2)CC1` [Example 62, 1-Methoxy-cyclopropanecarboxylic acid-trans-N-{4-[2-(4-benzo[1,3]dioxol-4-yl-piperazin-1-yl)-ethyl]-cyclohexyl}-amide], the Ki on D3 receptor amounted to 14.3 nM; on 5-HT2A receptor, 6.27 nM; at D2 receptor it was 86.5 nM.

Consider `CN(C)S(=O)(=O)N[C@H]1CC[C@H](CCN2CCN(c3cccc4c3OCO4)CC2)CC1` [Example 76, N-trans-{4-[2-(4-benzo[1,3]dioxol-4-yl-piperazin-1-yl)-ethyl]-cyclohexyl}-N,N-dimethyl-sulfamide], for which the Ki amounted to 3.36 nM on D3 receptor, 21.6 nM on 5-HT2A receptor and 128 nM at D2 receptor.

In the case of `[2H]C1([2H])Oc2cccc(N3CCN(CC[C@H]4CC[C@H](NC(=O)C[C@H]5COCCO5)CC4)CC3)c2O1` [Example 78, N-trans-{4-[2-(4-Benzo(2,2-D2)-[1,3]dioxol-4-yl-piperazin-1-yl)-ethyl]-cyclohexyl}-2-(S)-[1,4]dioxan-2-yl-acetamide], the figures for the Ki at 5-HT2A receptor (setting [1]) and at D2 receptor were 13.4 nM and 198 nM, respectively.
